Positions of bridges follow the written chain, without caps; N, C: chain ends. Residues, ends and D or L forms follow the SMILES beside them.
How the values were obtained:
[1] = tested on: peritoneal macrophages; assay: Apoptosis and necrosis of thioglycollate-recruited peritoneal macrophages in vivo (annexin V, propidium iodide); conditions: intraperitoneal injection, after 4 hours
Procedure: (§1) (FIG. 6A, FIG. 6B) Macrophages recruited to the peritoneal cavity by thioglycollate where challenged by intraperitoneal injections of either cM7, scM7 or the blocking anti-Mac-1 antibody M1/70. […] (FIG. 4C, FIG. 4D) In vitro cultivated human umbilical vein endothelial cells (HUVECs) were incubated with cM7, scM7 or a combination of CD40L or a blocking anti-CD40 antibody. […] Data are presented as mean±SEM of at least 3 independent experiments.

[2] = tested on: human umbilical vein endothelial cells (HUVECs); assay: Cytotoxicity and apoptosis in cultivated HUVECs (caspase 3/7 activity, LDH release); assay type: cell-based
Procedure: as §1

[3] = tested on: TNFα-challenged mice; conditions: mouse, in vivo
Procedure: Mice received an intraperitoneal injection 5 hours before surgery of 200 ng of murine TNFα (R&D systems) and 100 μg of peptides dissolved in sterile saline 5 hours before surgery. Mice were anesthetized with an intraperitoneal injection of ketamine hydrochloride (Essex) and xylazin (Bayer) at a dose at 187.5 mg/kg of body weight and 62.5 mg/kg of body weight, respectively. The cremaster muscle was exteriorized as described previously (Iezzi et al., PNAS (2009), pp 876-881). For some experiments a catheter was placed in the jugular vein and peptides were administered during microscopy. The cremaster was superfused with thermo-controlled (36° C.) saline. Mice were placed on a heating pad to maintain body temperature. Videos were taken with an intravital microscope (AxioScope Vario, Carl Zeiss) fitted with a saline immersion objective (WPlan-APOCHROMAT 20x/1,0DIC IR, Carl Zeiss) a high sensitivity camera system (AxioCam MRm, Carl Zeiss) for 30 seconds each. Rolling leukocyte flux was defined as the number of leukocytes moving at a velocity less than erythrocytes. Leukocyte rolling velocity was measured by the average time required for leukocytes to roll over a defined length of the venule at each time point. Adherent leukocytes were defined as cells that remained stationary for at least 30 s. Rolling leukocyte flux, adhering flux were quantified by a blinded investigator.

[4] = tested on: LDLr−/− mice; assay: Atherogenesis study, high-cholesterol diet 20 weeks; assay type: in vivo
Procedure: Atherogenesis study. Eight-week-old male LDL-receptor-deficient (LDLr^−/−) mice (Jackson Laboratories) consuming a high-cholesterol diet (HCD) were treated with intraperitoneal injections of the peptides cM7, scM7 (Peptide Specialty Laboratory) in a dose of 100 μg, or sterile saline three times a week. After 20 weeks blood samples were taken for flow cytometric analysis of leukocyte subpopulations, cholesterol and triglyceride plasma levels, as well as for the determination of plasma cytokines and chemokines. Blood pressure was determined by a non-invasive blood pressure measurement (NIBP, Harvard Apparatus). Mice were euthanized, and aortic roots and arches were frozen in OCT (OCT compound; Tissue-Tek). Thoracic and abdominal aortas were fixed in 10% buffered formalin. Serial cryostat sections (6 μm) of mouse aortic tissues were fixed in acetone, and air-dried. Nonspecific binding was blocked with 5% species-appropriate normal serum (Vector Laboratories). Sections were then incubated with primary antibodies diluted in phosphate-buffered saline, supplemented with 5% species-appropriate normal serum. Incubation with secondary antibodies was followed by avidin-biotin complex (ABC, Vector Laboratories). Antibody binding was visualized with 3-amino-9-ethylcarbazole (AEC; Dako), followed by counterstaining with Gill's hematoxylin solution (Sigma-Aldrich). Control stainings included staining with the respective IgG isotypes (Pharmingen, Dako). Antibodies used were rat anti-mouse Mac-3 for macrophage specific staining, anti α-actin for smooth muscle cell specific staining (Dako). For the visualization of Type I Collagen, Formalin-fixed frozen sections were incubated for 4 hours in a freshly prepared 0.1% solution of picrosirius red (Polysciences) in saturated aqueous picric acid. After rinsing in 0.01 N HCl and distilled water, sections were dehydrated in 70% ethanol and mounted in Permount (Vector Laboratories). Picrosirius red staining was analyzed by polarization microscopy. As the color of collagen fibers assessed in the picrosirius red staining depends on the thickness of collagen fibers and changes from green (thin fibers) to yellow, orange, and red (thick fibers), color distribution in stained collagen sections was quantified. Deposition of lipids was determined by oil red O staining after formalin fixation in aortic sections or in en face preparations of the abdominal aorta. To quantify the composition of the aortic lesions, sections of the aortic tissue were analyzed microscopically in all mice. Within the aortic root, lesion areas were analyzed in cross-sections obtained at the level of all 3 leaflets of the aortic valve, immediately proximal to the right coronary artery ostium. The total aortic wall area, lesion area in the aortic root, and the percentage of area stained for macrophages, lipids, SMCs, or collagen were determined via computer-assisted image quantification (ImagePro, Media Cybernetics).

[5] = tested on: C57BL/6J mice; assay: In vivo thrombosis model (ferrichloride injury of mesenteric arteriole)
Procedure: (§2) Potential side effects were checked in an in vivo thrombosis model. 3-4 weeks old C57BL/6J mice received an intraperitoneal injection of either sterile saline (100 μl), the peptides cM7, scM7, or the indicated antibodies. A mesenteric arteriole was chosen and injured with ferrichloride. Platelets were stained by retroorbital injection of rhodamine […] and visualized through an intravital microscope (AxioScope Vario, Carl Zeiss). Vessel occlusion time and thrombus embolization rate was analyzed. Tail bleeding time was determined as previously reported (Andre et al., Loc. Cit.).

[6] = tested on: C57BL/6J mice; assay: Tail bleeding time; conditions: mouse, in vivo
Procedure: as §2

[7] = tested on: CD40L-transfected murine fibroblasts; assay: Flow cytometry: binding of FITC-cM7 to CD40L- or mock-transfected murine fibroblasts; assay type: cell-based
Procedure: Flow cytometric analysis, platelet activation assays, and quantification of leukocyte-platelet aggregates, were performed as previously described (Zirlik et al., 2007). Binding of cM7 to CD40L-expressing murine fibroblasts was determined by quantification of FITC-coupled cM7. Binding of CD40L to Mac-1 expressing CHO-cells or human leukocytes was performed by incubation with CD40L (10 μg/ml) and subsequent detection with anti-PentaHis antibody (Qiagen).
Flow cytometric analyses, as well as platelet activation assays and quantification of leukocyte-platelet aggregates were performed as previously described (Quezada et al., Ann. Rev. Immunol. (2004), pp 307-328). Briefly, murine blood samples were taken by intracardiac puncture. Red cells were lyzed in 155 mM NH4Cl, 5.7 mM K2HPO4, 0.1 mM EDTA, pH 7.3. […] Antibodies for epitope specific fluorescence-activated cell sorting (FACS Calibur, BD) included anti-CD11b, anti-CD115, anti-Gr-1, anti-CD4, anti-CD8, anti-CD20, anti-CD41, anti-CD62P, anti-CD54, anti-CD102, and anti-CD106 (all from Ebioscience). Binding of cM7 to CD40L- or mock-transfected murine fibroblasts was determined by incubation of FITC-cM7 at the indicated concentrations with cells for 30 min at 37° C. and subsequent quantification of the fluorescence in the FL-1 channel. […]

[8] = target: T1, CD40L binding to Mac-1 I-domain (Homo sapiens, UniProt P29965); assay: Solid phase binding assay: blocking of CD40L binding to immobilized Mac-1 I-domain by peptides; conditions: peptides 50 μM
T1 construct: inserting the coding DNA for amino acids E^108 to L^261 in pHOG-21; His (N); trimerization domain (N); made in house
T1 sequence (P29965 108-261): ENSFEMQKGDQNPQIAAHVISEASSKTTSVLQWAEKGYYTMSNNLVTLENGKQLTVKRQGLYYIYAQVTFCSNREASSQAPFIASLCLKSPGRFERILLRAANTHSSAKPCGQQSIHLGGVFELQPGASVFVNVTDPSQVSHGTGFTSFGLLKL
Procedure: Solid phase binding assay. Recombinant CD40L was incubated with immobilized Mac-1 I-domain in the presence or absence of blocking peptides. Binding of sCD40L was detected by addition of anti-cmyc-HRP (Invitrogen), TMB-substrate (Pierce), and colorimetric reaction. Alternatively, CD40L (Provitro) was immobilized, and binding of the recombinant Mac-1 I-domain was quantified by addition of anti-His-Biotin (Qiagen), and HRP-coupled streptavidin (Pierce). For the binding to immobilized peptides, CD40L was biotinylated with the Micro Biotinylation Kit (Sigma). A mixture of equal molarities of all peptides served as the positive control in this assay.
The recombinant Mac-1 I-domain was immobilized in 96-well plates (Nunc) in PBS at 4° C. overnight. After blocking in 2% BSA/PBS and subsequent washing with PBS, recombinant CD40L was added to the wells in the indicated concentrations and incubated for 2 hours at 37° C. Effect of the peptides M1-M8 was assessed by incubating CD40L (10 μg/ml) in the presence of peptides (50 μM). After removing of unbound CD40L by washing with 0.1% Tween-20/PBS, anti-c-myc-HRP (Invitrogen) was added and incubated for 2 hours at room temperature. Binding was quantified by addition of TMB-substrate (Pierce), colorimetric reaction at 450 nm. Alternatively, CD40L without a His-tag (Provitro) was immobilized and blocked as described above. Binding of the recombinant Mac-1 I-domain was quantified by addition of anti-His-Biotin monoclonal antibody (Qiagen), HRP-coupled streptavidin (Pierce) and colorimetric reaction at 450 nm. For the specific binding of the Mac-1 I-domain BSA-coated wells were subtracted from the CD40L-coated. Kd was estimated using a one-site binding hyperbola nonlinear regression model with the Software Prism (Graphpad). For quantification of the binding of CD40L to peptides, peptides were immobilized in 96-well plates overnight at 4° C. in 50 mM sodium carbonate, pH 10.6. CD40L was biotinylated using the Micro-Biotinylation-Kit (Sigma) following the manufacturer's instructions and detected by HRP-coupled streptavidin (Pierce) and colorimetric reaction. A mixture of equal molarities of all peptides served as positive control. Absorbance on BSA-coated wells served as negative control and was subtracted.

Compound: CC(C)C[C@@H]1NC(=O)[C@H](CCC(N)=O)NC(=O)[C@H](CCC(=O)O)NC(=O)[C@@H](N)CSSC[C@@H](C(=O)O)NC(=O)[C@H](CC(C)C)NC(=O)[C@H]([C@@H](C)O)NC(=O)[C@H](CCCCN)NC(=O)[C@H](CO)NC(=O)[C@H](CCCCN)NC(=O)[C@H](CCCCN)NC1=O [cM7] (H-CEQLKKSKTLC-OH; disulfide 1-11 (inferred); N-terminus and C-terminus assumed)
- apoptotic or necrotic cells in vivo (annexin V binding, propidium iodide loading) [1]: did not cause an increase of apoptotic or necrotic cells in vivo
- apoptosis of endothelial cells, LDH-release ([2]; CD40L primed HUVECs): slightly increased in CD40L primed HUVECs
- cellular cytotoxicity, caspase 3/7-activity ([2]; HUVECs, 24 hours): did not induce cellular cytotoxicity
- Heart rate [3]: 628 ± 63 bpm
- Leukocytes [3]: 11.9 ± 2.3 ×1000/μl
- Platelets [3]: 552 ± 174 ×1000/μl
- Systolic blood pressure [3]: 97.6 ± 6.5 mmHg
- Leukocytes ([4]; AF): 4.54 ± 1.28 ×1000/μl
- Platelets ([4]; AF): 486 ± 198 ×1000/μl
- Weight ([4]; AF: after feeding): 35.7 ± 3.8 g
- Leukocytes ([4]; BF): 11.2 ± 3.1 ×1000/μl
- Platelets ([4]; BF): 529 ± 53 ×1000/μl
- Weight ([4]; BF: before feeding): 23.4 ± 2.3 g
- immunologic characteristics (T cells, B cells, cytokines) ([4]; long-term treatment): Any changes in immunologic characteristics were not observed
- effect on vessel occlusion time ([5]; model of arterial thrombosis): did not prolong vessel occlusion time
- effect on thromboembolization rate ([5]; mouse, in vivo): only caused a slight increase in thromboembolization rate
- effect on bleeding time [6]: did not affect bleeding time

Compound: C-EQLKKSKTL-C (CEQLKKSKTLC; bridge N-C; also: cyclised through the flanking Cys, bond type not given here) [FITC-labeled cM7]
- binding to murine fibroblasts over-expressing CD40L [7]: concentration-dependently bound to murine fibroblasts over-expressing CD40L
- binding to mock-transfected fibroblasts ([7]; control cells): but not to respective mock-transfected control cells

Compound: DAFRSEKSRQELNTI (therapeutically active peptide) [Peptide M4]
- blocking of CD40L / Mac-1 I-domain binding [8]: emerged as potential candidate inhibitors

Compound: FQVNNFEALKT (therapeutically active peptide) [Peptide M5]
- blocking of CD40L / Mac-1 I-domain binding [8]: emerged as potential candidate inhibitors

Compound: KFGDPLGYEDVIPEADR (therapeutically active peptide) [Peptide M3]
- blocking of CD40L / Mac-1 I-domain binding [8]: emerged as potential candidate inhibitors
